According to patent US8008506B2, “Indazole compounds” (priority 2008, dated 2011):
≈ marks a conversion by molar mass, not a printed value.

Tests used:
[1] = Test Example 11: solubility in hydrochloric acid buffer solution at pH 1.2; format: physicochemical; conditions: simulated gastric fluid, thermodynamic from solid; hydrochloric acid buffer solution at pH 1.2, 37° C., one hour, 1 mg/mL nominal
Experimental: Test on Solubility in Hydrochloric Acid Buffer Solution at pH 1.2
A test compound is precisely weighed to 500 μg, and a hydrochloric acid buffer solution at pH 1.2 is added thereto to a concentration of 1 mg/mL. The solution is shaken at 37° C. for one hour. After the shaking, the entire amount of the solution is transferred into a filter tube, and the solution is filtered by centrifugation. The filtrate is analyzed by HPLC, and the solubility of the test compound is determined by dividing the peak area value of the filtrate by the peak area value of the standard solution.
The standard solution is prepared by precisely weighing 500 μg of the test compound, and dissolving the test compound in DMSO to a concentration of 1 mg/mL.
YMC-Pack C18 (4.6 mm×150 mm) (manufactured by YMC Co., Ltd.) is used as a separating column. The detection is performed with UV-254 nm. Elution is carried out at a flow rate of 1 ml/min, using solution A=water [containing 0.1% (v/v) acetic acid] and solution B=acetonitrile as the solvents, under the conditions in which a linear gradient of the solution B is run from 5 to 98% (v/v) from zero minute to 20 minute, subsequently solution B is eluted at 98% up to 25 minute, and the solution B is eluted at 5% from 25.01 minute to […].

[2] = target: T1, human β1 adrenergic receptor (Homo sapiens, UniProt P08588); assay: Test Example 2-A: human β1 adrenergic receptor agonist activity (method of Test Example 1-A); format: cell-based; conditions: Table 1; for β1 receptor EC50: Test Example 2-A; for β1 receptor I.A.: maximum response to isoproterenol taken as 100%
T1 construct: expressed in transfected cells; host or cells: CHO (Chinese Hamster Ovary) cells, pcDNA3
T1 sequence (P08588 whole entry): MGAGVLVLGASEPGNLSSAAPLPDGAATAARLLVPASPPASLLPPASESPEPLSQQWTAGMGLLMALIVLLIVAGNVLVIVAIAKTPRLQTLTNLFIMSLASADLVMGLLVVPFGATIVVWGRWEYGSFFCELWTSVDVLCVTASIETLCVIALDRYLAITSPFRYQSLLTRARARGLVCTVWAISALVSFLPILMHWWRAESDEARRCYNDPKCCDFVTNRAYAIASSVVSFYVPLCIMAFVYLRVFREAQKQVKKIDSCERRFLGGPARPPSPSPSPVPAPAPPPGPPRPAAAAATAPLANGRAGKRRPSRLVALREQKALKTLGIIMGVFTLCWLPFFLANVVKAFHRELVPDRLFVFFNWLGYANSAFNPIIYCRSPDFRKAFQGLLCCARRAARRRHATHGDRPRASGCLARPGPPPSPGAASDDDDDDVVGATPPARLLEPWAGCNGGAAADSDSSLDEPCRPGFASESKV
Experimental: (§1) The measurement of human β3 adrenergic receptor agonist activity is carried out using CHO (Chinese Hamster Ovary) cells transfected with pcDNA3 (manufactured by Invitrogen, Inc.) to which human β3 gene has been inserted. […] This human β3 cDNA fragment is used as a probe, and the full length human β3 gene is obtained from a human genomic library (manufactured by Clontech Laboratories, Inc.). The above cells are cultured in Ham's F-12 medium containing 10% fetal bovine serum and 400 μg/ml geneticin (manufactured by Invitrogen, Inc.). These cells are seeded on a 24-well plate to a concentration of 1×10^5 cells/well, and after being cultured for about 20 hours, the cells are left to stand in serum-free Ham's F-12 medium for 2 hours. A test compound is initially dissolved in DMSO, and then is diluted stepwise with Ham's F-12 containing 20 mmol/L HEPES, 1 mmol/L isobutylmethylxanthine, and 1 mmol/L ascorbic acid. The dilution is added to the cells. After the cells are cultured for 30 minutes, and then the medium is removed, followed by addition of 0.1 ml of 1 N NaOH to the cells. The cells are left to stand for 20 minutes, and then are added with 0.1 ml of 1 N acetic acid and are stirred. The resulting cell lysate is centrifuged, and then is subjected to quantification of cAMP with cAMP EIA kit (manufactured by Cayman Chemical Co.). […] Measurement of Human β1 Adrenergic Receptor Agonist Activity

[3] = target: T2, human β2 adrenergic receptor (Homo sapiens, UniProt P07550); assay: Test Example 3-A: human β2 adrenergic receptor agonist activity (method of Test Example 1-A); format: cell-based; conditions: Table 1; for β2 receptor EC50: Test Example 3-A; for β2 receptor I.A.: maximum response to isoproterenol taken as 100%
T2 construct: expressed in transfected cells; host or cells: CHO (Chinese Hamster Ovary) cells, pcDNA3
T2 sequence (P07550 whole entry): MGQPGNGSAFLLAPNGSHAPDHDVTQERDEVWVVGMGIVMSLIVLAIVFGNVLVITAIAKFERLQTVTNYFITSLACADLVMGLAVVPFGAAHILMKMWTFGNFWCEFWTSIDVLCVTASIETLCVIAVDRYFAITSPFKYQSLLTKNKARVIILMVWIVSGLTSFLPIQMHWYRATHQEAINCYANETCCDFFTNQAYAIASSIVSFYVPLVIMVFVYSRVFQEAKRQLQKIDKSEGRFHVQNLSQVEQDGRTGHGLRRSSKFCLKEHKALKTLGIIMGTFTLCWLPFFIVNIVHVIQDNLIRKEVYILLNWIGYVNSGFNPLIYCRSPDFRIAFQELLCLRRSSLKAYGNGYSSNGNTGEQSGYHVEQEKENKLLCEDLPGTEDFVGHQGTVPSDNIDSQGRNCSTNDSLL
Experimental: [Worded in the source for another target; this target is reported under the same test.] as §1, with “β2” for “β1”

[4] = Test Example 10: saturation solubility in pure water; format: physicochemical; conditions: thermodynamic from solid, room temperature, shaken one hour
Experimental: Saturation Solubility in Pure Water
A test compound is prepared in pure water to be in the saturated state. This solution is shaken for one hour at room temperature. After the shaking, the entire amount of the solution is transferred into a filter tube, and the solution is filtered by centrifugation. The filtrate is analyzed by HPLC, and the saturation solubility of the test compound is determined using a calibration curve, based on the peak area value.
A standard solution is prepared by precisely weighing each test compound, and preparing a solution that sufficiently dissolves in pure water. The calibration curve is produced by assigning the concentration of the standard solution to the horizontal axis, and assigning the HPLC area peak at the concentration to the vertical axis.
YMC-Pack C18 (4.6 mm×150 mm) (manufactured by YMC Co., Ltd.) is used as a separating column. The detection is performed with UV-254 nm. Elution is carried out at a flow rate of 1 ml/min, using solution A=water [containing 0.1% (v/v) acetic acid] and solution B=acetonitrile as the solvents, under the conditions in which a linear gradient of the solution B is run from 5 to 98% (v/v) from zero minute to 20 minute, subsequently solution B is eluted at 98% up to 25 minute, and the solution B is eluted at 5% from 25.01 minute to 35 minute.

CC(C)c1n[nH]c2cc(OCCNC[C@H](O)c3cccc(NS(C)(=O)=O)c3)ccc12 [Example 1, (R)-N-(3-(1-hydroxy-2-(2-(3-isopropylindazol-6-yloxy)ethylamino)ethyl)phenyl)methanesulfonamide]
solubility at 1 h [1]: ≥ 1 mg/mL

CCc1n[nH]c2cc(OCCNC[C@H](O)c3cccc(NS(C)(=O)=O)c3)ccc12 [Example 2, (R)-N-(3-(1-hydroxy-2-(2-(3-ethylindazol-6-yloxy)ethylamino)ethyl)phenyl)methanesulfonamide]
β1 receptor EC50 [2]: a)
β1 receptor I.A. [2]: 8.1%
β2 receptor EC50 [3]: a)
β2 receptor I.A. [3]: 3.0%
solubility at 1 h [4]: 204 mg/mL (≈ 487 mM)
solubility at 1 h [1]: ≥ 1 mg/mL

CCCc1n[nH]c2cc(OCCNC[C@H](O)c3cccc(NS(C)(=O)=O)c3)ccc12 [Example 3, (R)-N-(3-(1-hydroxy-2-(2-(3-propylindazol-6-yloxy)ethylamino)ethyl)phenyl)methanesulfonamide]
solubility at 1 h [4]: 50 mg/mL (≈ 116 mM)

CS(=O)(=O)Nc1cccc([C@@H](O)CNCCOc2ccc3c(C(F)(F)F)n[nH]c3c2)c1 [Example 4, (R)-N-(3-(1-hydroxy-2-(2-(3-trifluoromethylindazol-6-yloxy)ethylamino)ethyl)phenyl)methanesulfonamide]
solubility at 1 h [4]: 71 mg/mL (≈ 155 mM)
solubility at 1 h [1]: 0.963 mg/mL (≈ 2.1 mM)

CN(C)C(=O)CCc1n[nH]c2cc(OCCNC[C@H](O)c3cccc(NS(C)(=O)=O)c3)ccc12 [Example 5, (R)-3-(6-(2-(2-hydroxy-2-(3-(methylsulfonamido)phenyl)ethylamino)ethoxy)-indazol-3-yl)-N,N-dimethylpropanamide]
β1 receptor EC50 [2]: a)
β1 receptor I.A. [2]: 3.3%
β2 receptor EC50 [3]: a)
β2 receptor I.A. [3]: 3.2%
solubility at 1 h [4]: 491 mg/mL (≈ 1000 mM)
solubility at 1 h [1]: ≥ 1 mg/mL

COCc1n[nH]c2cc(OCCNC[C@H](O)c3cccc(NS(C)(=O)=O)c3)ccc12 [Example 6, (R)-N-(3-(1-hydroxy-2-(2-(3-methoxymethylindazol-6-yloxy)ethylamino)ethyl)phenyl)methanesulfonamide]
β1 receptor EC50 [2]: a)
β1 receptor I.A. [2]: 3.3%
β2 receptor EC50 [3]: a)
β2 receptor I.A. [3]: 7.6%
solubility at 1 h [1]: ≥ 1 mg/mL
